Results taken from patent US4742045A, “Glycopeptide antibiotics” (SmithKline Beckman Corporation, priority 1986, dated 1988).
Converted amounts (≈) assume the structure as drawn. Where two headings read alike, the source gives them in different places.

Experiments:
Staphylococcus aureus = test: standard microtiter assay, minimum inhibitory concentration; type: cell-based; settings: Staphylococcus aureus, read-out: minimum inhibitory concentration
Text: (§1) Representative results of standard microtiter assays are reported in Tables 1, 2 and 3 which follow, as the minimum inhibitory concentration of antibiotic (μg/ml).
(§2) In Table 1, test organisms 1-13 were different strains of Staphylococcus aureus, and 14-16 were different strains of Staphylococcus epidermidis. In Table 2, test organisms 1-5 were different strains of S. aureus; 6, 8, 12 and 14 were different strains of S. epidermidis; 7 was a Staphylococcus haemolyticus; 9 and 10 were different strains of Streptococcus faecalis; 11 was a Streptococcus pyogenes; and 13 was a Staphylococcus saprophyticus. In Table 3, test organisms 1-3 were different strains of S. aureus; 4 and 6 were different strains of S. epidermidis; 5 was a S. haemolyticus and 7 and 8 were different strains of Streptococcus faecalis. Except where individual components are indicated, the CWI-785 antibiotic employed was the CWI-785 complex; in some cases, HCl salts of the CWI-785 antibiotic were employed.
The number of strains tested is shown in parentheses below each organism. The average MIC is reported in μg/ml.
(§3) In Table 5 are shown data from standard microtiter assays carried out in a presence of no serum, 50% human serum (hum.) and 50% mouse serum (mse.). The test organisms were 1: S. aureus; 2,4 and 5: different strains of S. epidermidis; 3: S. haemolyticus; 6: S. saprophyticus; 7 and 8: different strains of S. faecalis.

[1] = system: Staphylococcus epidermidis; test: as above; type: cell-based
Text: as §1, §2, §3

STAPH. AUREUS HH 127 = test: prophylactic activity, dosing preinfection; type: in vivo, mice
cecum fluid from a swine = test: swine in vitro model, cecum fluid incubation
Method: The swine in vitro model was carried by incubating 1.5 ml of cecum fluid, from a swine fed normal rations, mixed with 1.5 ml of a nutrient broth (3 mg casein hydrolysate, 30 mg maltose, 1.25 mg urea, 0.5 mg lysine, and 30 mg cellobiose) and with up to 166.67 parts per million of a selected growth promotant at 39° C., with oscillation, for about 4-5 hours. Results, percentage of control, are reported in the following table in which all abbreviations are as above and LLAC means L-lactate, ETOH means ethanol and GLU means glucose.

COc1cccc(OC)c1C(=O)N[C@@H]1C(=O)N2[C@@H]1SC(C)(C)[C@@H]2C(=O)O [Methicillin]
MIC (Staphylococcus aureus; Table 1 test organism 1, S. aureus strain): 3.1 µg/mL (≈ 8.15 µM) | MIC (Staphylococcus aureus; Table 1 test organism 2, S. aureus strain): 12.5 µg/mL (≈ 32.9 µM) | MIC (Staphylococcus aureus; Table 1 test organism 3, S. aureus strain): 6.3 µg/mL (≈ 16.6 µM) | MIC (Staphylococcus aureus; Table 1 test organism 4, S. aureus strain): 12.5 µg/mL (≈ 32.9 µM) | MIC (Staphylococcus aureus; Table 1 test organism 5, S. aureus strain): 12.5 µg/mL (≈ 32.9 µM) | MIC (Staphylococcus aureus; Table 1 test organism 6, S. aureus strain): 12.5 µg/mL (≈ 32.9 µM) | MIC (Staphylococcus aureus; Table 1 test organism 7, S. aureus strain): > 50 µg/mL | MIC (Staphylococcus aureus; Table 1 test organism 8, S. aureus strain): > 50 µg/mL | MIC (Staphylococcus aureus; Table 1 test organism 9, S. aureus strain): > 50 µg/mL | MIC (Staphylococcus aureus; Table 1 test organism 10, S. aureus strain): > 50 µg/mL | MIC (Staphylococcus aureus; Table 1 test organism 11, S. aureus strain): > 50 µg/mL | MIC (Staphylococcus aureus; Table 1 test organism 12, S. aureus strain): 50 µg/mL (≈ 131 µM) | MIC (Staphylococcus aureus; Table 1 test organism 13, S. aureus strain): > 50 µg/mL | MIC ([1]; Staphylococcus epidermidis, Table 1 test organism 14, S. epidermidis strain, read-out: minimum inhibitory concentration): 1.6 µg/mL (≈ 4.21 µM) | minimum inhibitory concentration ([1]; Table 1 test organism 15, S. epidermidis strain): 1.6 µg/mL (≈ 4.21 µM) | minimum inhibitory concentration ([1]; Table 1 test organism 16, S. epidermidis strain): 1.6 µg/mL (≈ 4.21 µM)

CNC(C(=O)NC1C(=O)NC(CC[S+](C)[O-])C(=O)NC2C(=O)NC3C(=O)NC(C(=O)NC(C(=O)O)c4cc(O)cc(O)c4-c4cc3ccc4O)C(OC3CC(N)C(O)C(C)O3)c3ccc(c(Cl)c3)Oc3cc2cc(c3O)Oc2ccc(cc2)C1O)c1ccc(O)cc1.Cl (stereo not drawn) [HPB3 hydrochloride]
ED50 (STAPH. AUREUS HH 127; Table 7, vs Staph. aureus HH 127 (S.C.), read-out: ED50): 1.25 mg/kg | PERCENT SURVIVAL (STAPH. AUREUS HH 127; Table 7: 40 mg/kg, 4 hr preinfection, S.C.): 100% | survival printed in parentheses under ED 50 (STAPH. AUREUS HH 127; Table 8, printed with ED 50 <0.156): 90% | ED50 (STAPH. AUREUS HH 127; Table 8, vs Staph. aureus HH 127 (I.V.)): < 0.156 mg/kg | PERCENT SURVIVAL (STAPH. AUREUS HH 127; Table 8: 40 mg/kg (I.V.), 6 hr preinfection): 60%

Virginiamycin
% PR (propionate relative to TOTAL) (cecum fluid from a swine; 1.67 PPM): 99% OF CONTROL | ACE (acetate) (cecum fluid from a swine; 1.67 PPM): 138% OF CONTROL | BUT (butyrate) (cecum fluid from a swine; 1.67 PPM): 178% OF CONTROL | ETOH (ethanol) (cecum fluid from a swine; 1.67 PPM): 309% OF CONTROL | GLU (glucose) (cecum fluid from a swine; 1.67 PPM): 152% OF CONTROL | IBU (isobutyrate) (cecum fluid from a swine; 1.67 PPM): 0% OF CONTROL | IVA (isovalerate) (cecum fluid from a swine; 1.67 PPM): 251% OF CONTROL | LLAC (L-lactate) (cecum fluid from a swine; 1.67 PPM): 17% OF CONTROL | PRO (propionate) (cecum fluid from a swine; 1.67 PPM): 147% OF CONTROL | TOTAL (total VFA) (cecum fluid from a swine; 1.67 PPM): 148% OF CONTROL | VAL (valerate) (cecum fluid from a swine; 1.67 PPM): 262% OF CONTROL | % PR (propionate relative to TOTAL) (cecum fluid from a swine; 16.67 PPM): 81% OF CONTROL | ACE (acetate) (cecum fluid from a swine; 16.67 PPM): 58% OF CONTROL | BUT (butyrate) (cecum fluid from a swine; 16.67 PPM): 95% OF CONTROL | ETOH (ethanol) (cecum fluid from a swine; 16.67 PPM): 273% OF CONTROL | GLU (glucose) (cecum fluid from a swine; 16.67 PPM): 151% OF CONTROL | IBU (isobutyrate) (cecum fluid from a swine; 16.67 PPM): 0% OF CONTROL | IVA (isovalerate) (cecum fluid from a swine; 16.67 PPM): 40% OF CONTROL | LLAC (L-lactate) (cecum fluid from a swine; 16.67 PPM): 32% OF CONTROL | PRO (propionate) (cecum fluid from a swine; 16.67 PPM): 42% OF CONTROL | TOTAL (total VFA) (cecum fluid from a swine; 16.67 PPM): 52% OF CONTROL | VAL (valerate) (cecum fluid from a swine; 16.67 PPM): 113% OF CONTROL | % PR (propionate relative to TOTAL) (cecum fluid from a swine; 166.67 PPM): 59% OF CONTROL | ACE (acetate) (cecum fluid from a swine; 166.67 PPM): 45% OF CONTROL | BUT (butyrate) (cecum fluid from a swine; 166.67 PPM): 83% OF CONTROL | ETOH (ethanol) (cecum fluid from a swine; 166.67 PPM): 0% OF CONTROL | GLU (glucose) (cecum fluid from a swine; 166.67 PPM): 151% OF CONTROL | IBU (isobutyrate) (cecum fluid from a swine; 166.67 PPM): 0% OF CONTROL | IVA (isovalerate) (cecum fluid from a swine; 166.67 PPM): 56% OF CONTROL | LLAC (L-lactate) (cecum fluid from a swine; 166.67 PPM): 39% OF CONTROL | PRO (propionate) (cecum fluid from a swine; 166.67 PPM): 20% OF CONTROL | TOTAL (total VFA) (cecum fluid from a swine; 166.67 PPM): 34% OF CONTROL | VAL (valerate) (cecum fluid from a swine; 166.67 PPM): 84% OF CONTROL
